Residue numbers refer to the chain shown, from its start. Several values for one entry are separate records, joined by “and”; a condition that tells them apart may be missing. Identical values can stand only once.
Tests used:
[1] = molecular target: T1, COX2 WT (Homo sapiens, UniProt P35354); experiment: in vitro [14C] acetylation assay of purified COX2; type: biochemical; parameters: C14 radioactivity of COX2, acetylation assay (Fig 1h): unit not given here
T1 construct: His (N); made in house
T1 sequence (P35354 18-604): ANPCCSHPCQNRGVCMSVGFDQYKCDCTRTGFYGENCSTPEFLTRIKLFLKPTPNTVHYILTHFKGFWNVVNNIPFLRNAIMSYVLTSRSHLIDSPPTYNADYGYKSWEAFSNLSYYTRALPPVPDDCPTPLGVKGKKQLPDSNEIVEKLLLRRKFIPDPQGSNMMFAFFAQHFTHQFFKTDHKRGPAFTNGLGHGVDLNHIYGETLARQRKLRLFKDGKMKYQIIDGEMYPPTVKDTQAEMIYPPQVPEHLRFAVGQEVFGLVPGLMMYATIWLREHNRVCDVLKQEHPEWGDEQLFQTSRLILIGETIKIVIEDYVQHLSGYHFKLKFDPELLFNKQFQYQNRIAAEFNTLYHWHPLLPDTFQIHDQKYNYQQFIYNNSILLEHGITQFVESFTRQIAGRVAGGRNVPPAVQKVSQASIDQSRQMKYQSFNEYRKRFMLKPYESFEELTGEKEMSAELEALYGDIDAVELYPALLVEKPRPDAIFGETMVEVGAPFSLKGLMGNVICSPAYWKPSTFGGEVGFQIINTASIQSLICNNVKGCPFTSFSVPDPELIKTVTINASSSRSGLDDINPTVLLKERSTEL
Protocol: Acetylation assays were performed according to previously described procedures with minor modifications. […] To confirm the N-AS-mediated COX2 acetylation, 10 μg COX2 (WT or mutants) was used incubated with [^14C] N-AS (2 μCi, ARC UK Ltd, ARC-1024) at 37 °C for 2 h. [^14C] aspirin (2 μCi, ARC UK Ltd, ARC-0473) was conducted as the positive control. The reactions were terminated by placing the reaction tubes in ice for 5 min. To evaluate in vivo neuronal and microglial COX2 acetylation, 10 μCi [^14C] N-AS was orally administrated to 9-months-old WT and APP/PS1 mice. After 1 h, neuron and microglia were isolated and sonicated in culture media. To immunoprecipitate acetylated COX2, the sample was incubated with COX2 antibody (Abcam, ab15191) at 4 °C for 24 h and precipitated by adding 50 μl of protein-A sepharose (GE Healthcare). Acetylated COX2 proteins bound to the beads were analyzed using a Tri-Carb 3110TR liquid scintillation counter (Perkin-Elmer).

[2] = molecular target: T2, COX2 N181A (Homo sapiens, UniProt P35354, N181A); experiment: filter binding assay of [14C] N-AS to COX2; conditions: replicates
T2 construct: His (N); made in house
T2 sequence (P35354 18-604 N181A): T1 sequence (P35354 18-604) with N164A
Source text: Single point mutations in SphK1 (R56A, R57A, R24A, R185A, D178A, and F192A) and COX2 (S565A, N181A, T564A, and S567A) were generated using the In-Fusion Cloning Kits (Clontech) and ORF cDNA expression plasmids of human SphK1 and COX2 gene (Sino Biological Inc, HG15679-NH and HG12036-NH), according to the manufacturer’s instructions. The forward and reverse primers described in Supplementary Table 4. The SphK1 WT, SphK1 mutants, COX2 WT, and COX2 mutant plasmids were transformed in the One shot TOP 10 competent cell (Invitrogen). The bacteria were grown in Luria-Bertani (LB, Invitrogen) plates supplemented with 50 μg ml^−1 kanamycin (Sigma-Aldrich) at 37 °C. The bacterial cell pellets were resuspended in lysis buffer containing 20 mM sodium phosphate (GE Healthcare), 500 mM NaCl (GE Healthcare), 20 mM imidazole (pH 7.4) (GE Healthcare), 0.2 mg ml^−1 lysozyme (Sigma-Aldrich), 20 μg ml^−1 DNase I (Roche), 1 mM MgCl2 (Sigma-Aldrich), and 1 mM PMSF (Sigma-Aldrich) before being lysed by sonication and clarified by centrifugation at 15,493×g for 10 min. Proteins were purified from the soluble fraction using His-Spin Trap columns (GE Healthcare) and the binding and acetylation assays were performed.
Briefly, SphK1 WT and mutant enzymes (1 mU) were resuspended in 100 μl reaction buffer (20 mM HEPES; pH 7.4, 50 mM NaCl, 10 mM MgCl2, 1 mM EGTA, 0.02% Triton-X100, and 100 μM sphingosine, all from Sigma-Aldrich). […] Briefly, COX2 WT and mutant enzymes (1 mU) were resuspended in 100 μl reaction buffer (20 mM HEPES; pH 7.4, 50 mM NaCl, 10 mM MgCl2, 1 mM EGTA, and 0.02% Triton-X100, all from Sigma-Aldrich). Reactions were initiated by adding [^14C] N-AS (1–200 μM (0.1–20 μCi), ARC UK Ltd, ARC-1024) and incubated at 37 °C for 1 h. The reactions were terminated by adding 100 μl of ice-cold reaction buffer containing 5 mM cold N-AS and immediately filtered through P30 filtermat (Perkin-Elmer), followed by five washes.
The binding velocity was plotted and the Kcat and KM values were calculated from the Michaelis-Menten analysis using the Sigma-plot program (ver 10.0, Systat software Inc.).

SMILES: CCCCCCCCCCCCC/C=C/[C@@H](O)[C@H](CO)NC(C)=O [N-AS, N-((2S,3R,E)-1,3-Dihydroxyoctadec-4-en-2-yl)acetamide]
- C14 radioactivity of COX2, acetylation assay (Fig 1h) ([1]; COX2 WT, replicates, listed as C14 N-AS): 278534 and 277829 and 277497 and 262864 and 273318 and 276027
- COX2 acetylation level, in words ([1]; [14C] N-AS vs aspirin or SphK1-mediated acetylation): higher-level acetylation
- binding velocity (Vbinding) ([2]; 1 uM): 0.642 nM/min and 0.892 nM/min and 0.879 nM/min
- binding velocity (Vbinding) ([2]; 5 uM): 7.037 nM/min and 14.518 nM/min and 5.980 nM/min
- binding velocity (Vbinding) ([2]; 10 uM): 11.465 nM/min and 12.134 nM/min and 6.758 nM/min
- binding velocity (Vbinding) ([2]; 20 uM): 15.248 nM/min and 14.109 nM/min and 13.356 nM/min
- binding velocity (Vbinding) ([2]; 100 uM): 24.771 nM/min and 29.019 nM/min and 25.078 nM/min
- binding velocity (Vbinding) ([2]; 200 uM): 41.872 nM/min and 40.849 nM/min and 37.213 nM/min
